The values that follow come from ChEMBL document CHEMBL1123539, “[p-[(Thienylcarbonyl)amino]phenoxy]propanolamines derivatives as diuretic and beta-adrenergic receptor blocking agents” (1986).

The subject of assay [1] is Rattus norvegicus. Briefly: Compound was tested for oral salidiuretic activity (control/drug treatment value) in rats expressed in Na+, mequiv/6 hr at a dose of 32 mg/kg; 0.140/0.416. It is filed as functional, Urine.
The subject of assay [2] is Rattus norvegicus. Briefly: Compound was tested for oral salidiuretic activity (control/drug treatment value) in rats expressed as urinary output. at a dose of 32 mg/kg; 10.33/10.75. Format: functional, Urine.
Assay [3] deals with Beta-1 adrenergic receptor (Homo sapiens) (UniProt P08588). The settings on record: Canis lupus familiaris.
Sequence of Beta-1 adrenergic receptor (Homo sapiens) (P08588 whole entry, looked up): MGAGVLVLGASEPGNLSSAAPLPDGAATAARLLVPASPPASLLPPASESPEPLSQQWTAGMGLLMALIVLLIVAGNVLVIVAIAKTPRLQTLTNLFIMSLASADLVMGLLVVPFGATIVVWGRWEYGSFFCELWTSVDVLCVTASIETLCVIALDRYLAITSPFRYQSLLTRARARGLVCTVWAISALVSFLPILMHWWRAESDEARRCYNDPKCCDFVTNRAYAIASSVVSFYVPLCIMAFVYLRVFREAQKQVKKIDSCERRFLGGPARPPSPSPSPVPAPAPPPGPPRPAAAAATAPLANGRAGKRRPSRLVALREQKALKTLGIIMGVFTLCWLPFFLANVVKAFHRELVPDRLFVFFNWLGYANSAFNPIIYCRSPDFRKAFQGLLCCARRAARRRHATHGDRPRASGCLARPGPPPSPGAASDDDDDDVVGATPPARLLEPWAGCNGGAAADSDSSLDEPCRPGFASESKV
Description: Compound was tested for beta-1 adrenergic receptor blocking activity in dogs
In assay [4] the target is Beta-2 adrenergic receptor (Canis lupus familiaris) (UniProt P54833).
Sequence of Beta-2 adrenergic receptor (Canis lupus familiaris) (P54833 whole entry, looked up): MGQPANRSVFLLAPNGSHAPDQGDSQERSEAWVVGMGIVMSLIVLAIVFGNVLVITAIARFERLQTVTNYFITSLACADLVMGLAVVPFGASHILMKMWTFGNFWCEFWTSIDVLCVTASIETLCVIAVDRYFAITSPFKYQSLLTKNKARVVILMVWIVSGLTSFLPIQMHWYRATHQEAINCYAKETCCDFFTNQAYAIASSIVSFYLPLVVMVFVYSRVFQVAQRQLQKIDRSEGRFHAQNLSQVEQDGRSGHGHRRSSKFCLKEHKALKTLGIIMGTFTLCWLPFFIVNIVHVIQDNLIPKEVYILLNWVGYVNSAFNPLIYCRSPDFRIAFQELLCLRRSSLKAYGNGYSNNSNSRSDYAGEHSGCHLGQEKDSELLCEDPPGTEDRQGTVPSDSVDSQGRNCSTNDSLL
Description: The compound was tested for beta-2 adrenergic receptor blocking activity in dogs
Assay [5] deals with Rattus norvegicus. Put plainly: Compound was tested for oral salidiuretic activity (control/drug treatment value) in rats expressed as urinary output. at a dose of 128 mg/kg; 7.87/8.70. It is filed as functional, Urine.
In assay [6] the test system is Rattus norvegicus. Put plainly: Compound was tested for oral salidiuretic activity (control/drug treatment value) in rats expressed in Na+, mequiv/6 h at a dose of 128 mg/kg; 0.177/0.304. Format: functional, Urine.
The subject of assay [7] is Rattus norvegicus. Put plainly: Compound was tested for oral salidiuretic activity (control/drug treatment value) in rats expressed in Na+, mequiv/6 hr at a dose of 128 mg/kg; 0.202/0.961. It is filed as functional, Urine.
The subject of assay [8] is Rattus norvegicus. Put plainly: Compound was tested for oral salidiuretic activity (control/drug treatment value) in rats expressed as urinary output. at a dose of 128 mg/kg; 7.17/11.25. It is filed as functional, Urine.
The test system of assay [9] is Rattus norvegicus. Put plainly: Compound was tested for oral salidiuretic activity (control/drug treatment value) in rats expressed in Na+, mequiv/6 hr at a dose of 128 mg/kg; 0.306/0.786. Format: functional, Urine.
Assay [10] concerns Rattus norvegicus. Briefly: Compound was tested for oral salidiuretic activity (control/drug treatment value) in rats expressed as urinary output. at a dose of 128 mg/kg; 6.83/10.83. Format: functional, Urine.
In assay [11] the test system is Rattus norvegicus. Put plainly: Compound was tested for oral salidiuretic activity (control/drug treatment value) in rats expressed as urinary output. at a dose of 128 mg/kg; 7.70/12.75. It is filed as functional, Urine.
Assay [12] concerns Rattus norvegicus. Put plainly: Compound was tested for oral salidiuretic activity (control/drug treatment value) in rats expressed in Na+, mequiv/6 hr at a dose of 128 mg/kg; 0.114/0.707.
The test system of assay [13] is Rattus norvegicus. Put plainly: Compound was tested for oral salidiuretic activity (control/drug treatment value) in rats expressed in Na+, mequiv/6 hr at a dose of 128 mg/kg; 0.112/0.407. Format: functional, Urine.
In assay [14] the test system is Rattus norvegicus. Briefly: Compound was tested for oral salidiuretic activity (control/drug treatment value) in rats expressed as urinary output. at a dose of 128 mg/kg; 7.25/9.43. Format: functional, Urine.
The subject of assay [15] is Rattus norvegicus. Put plainly: Compound was tested for oral salidiuretic activity (control/drug treatment value) in rats expressed in Na+, mequiv/6 hr at a dose of 128 mg/kg; 0.229/0.172. Format: functional, Urine.
Assay [16] has as its system Rattus norvegicus. Put plainly: Compound was tested for oral salidiuretic activity (control/drug treatment value) in rats expressed as urinary output. at a dose of 128 mg/kg; 4.88/5.32. Format: functional, Urine.
For assay [17], the system named is Rattus norvegicus. Briefly: Compound was tested for oral salidiuretic activity (control/drug treatment value) in rats expressed as urinary output. at a dose of 64 mg/kg; 10.33/12.42.
The test system of assay [18] is Rattus norvegicus. Briefly: Compound was tested for oral salidiuretic activity (control/drug treatment value) in rats expressed in Na+, mequiv/6 hr at a dose of 64 mg/kg; 0.140/0.606.
Assay [19] concerns Rattus norvegicus. Put plainly: Compound was tested for oral salidiuretic activity (control/drug treatment value) in rats expressed as urinary output. at a dose of 16 mg/kg; 7.67/8.78. Format: functional, Urine.
Assay [20] relates to Rattus norvegicus. Put plainly: Compound was tested for oral salidiuretic activity (control/drug treatment value) in rats expressed as urinary output. at a dose of 32 mg/kg; 7.67/10. It is filed as functional, Urine.
Assay [21] has as its system Rattus norvegicus. Put plainly: Compound was tested for oral salidiuretic activity (control/drug treatment value) in rats expressed as urinary output. at a dose of 64 mg/kg; 7.67/12.42. It is filed as functional, Urine.
Assay [22] has as its system Rattus norvegicus. Put plainly: Compound was tested for oral salidiuretic activity (control/drug treatment value) in rats expressed in Na+, mequiv/6 hr at a dose of 128 mg/kg; 0.181/0.607. Format: functional, Urine.
For assay [23], the system named is Rattus norvegicus. Put plainly: Compound was tested for oral salidiuretic activity (control/drug treatment value) in rats expressed in Na+, mequiv/6 hr at a dose of 32 mg/kg; 0.181/0.230. Format: functional, Urine.
Assay [24] concerns Rattus norvegicus. Briefly: Compound was tested for oral salidiuretic activity (control/drug treatment value) in rats expressed as urinary output. at a dose of 128 mg/kg; 7.67/14.18. It is filed as functional, Urine.
For assay [25], the system named is Rattus norvegicus. Put plainly: Compound was tested for oral salidiuretic activity (control/drug treatment value) in rats expressed in Na+, mequiv/6 hr at a dose of 16 mg/kg; 0.181/0.242. Format: functional, Urine.
Assay [26] deals with Rattus norvegicus. Briefly: Compound was tested for oral salidiuretic activity (control/drug treatment value) in rats expressed in Na+, mequiv/6 hr at a dose of 64 mg/kg; 0.181/0.512. Format: functional, Urine.
Assay [27] has as its system Rattus norvegicus. Put plainly: Compound was tested for oral salidiuretic activity (control/drug treatment value) in rats expressed as urinary output. at a dose of 14 mg/kg; 7.17/9.08. It is filed as functional, Urine.
Assay [28] concerns Rattus norvegicus. Briefly: Compound was tested for oral salidiuretic activity (control/drug treatment value) in rats expressed as urinary output. at a dose of 27 mg/kg; 7.17/9.75. Format: functional, Urine.
For assay [29], the system named is Rattus norvegicus. Put plainly: Compound was tested for oral salidiuretic activity (control/drug treatment value) in rats expressed as urinary output. at a dose of 55 mg/kg; 7.17/9.58. It is filed as functional, Urine.
Assay [30] relates to Rattus norvegicus. Briefly: Compound was tested for oral salidiuretic activity (control/drug treatment value) in rats expressed in Na+, mequiv/6 hr at a dose of 110 mg/kg; 0.261/0.735. It is filed as functional, Urine.
Assay [31] deals with Rattus norvegicus. Briefly: Compound was tested for oral salidiuretic activity (control/drug treatment value) in rats expressed as urinary output. at a dose of 110 mg/kg; 7.17/11.20. It is filed as functional, Urine.
The subject of assay [32] is Rattus norvegicus. Briefly: Compound was tested for oral salidiuretic activity (control/drug treatment value) in rats expressed in Na+, mequiv/6 hr at a dose of 14 mg/kg; 0.261/0.695. It is filed as functional, Urine.
Assay [33] has as its system Rattus norvegicus. Put plainly: Compound was tested for oral salidiuretic activity (control/drug treatment value) in rats expressed in Na+, mequiv/6 hr at a dose of 27 mg/kg; 0.261/0.742. It is filed as functional, Urine.
Assay [34] deals with Rattus norvegicus. Briefly: Compound was tested for oral salidiuretic activity (control/drug treatment value) in rats expressed in Na+, mequiv/6 hr at a dose of 110 mg/kg; 0.261/0.735.
In assay [35] the test system is Rattus norvegicus. Put plainly: Compound was tested for oral salidiuretic activity (control/drug treatment value) in rats expressed as urinary output. at a dose of 128 mg/kg; 9.05/12.83. It is filed as functional, Urine.
The test system of assay [36] is Rattus norvegicus. Put plainly: Compound was tested for oral salidiuretic activity (control/drug treatment value) in rats expressed as urinary output. at a dose of 16 mg/kg; 9.05/9.87. It is filed as functional, Urine.
Assay [37] relates to Rattus norvegicus. Put plainly: Compound was tested for oral salidiuretic activity (control/drug treatment value) in rats expressed in Na+, mequiv/6 hr at a dose of 128 mg/kg; 0.216/0.263. It is filed as functional, Urine.
For assay [38], the system named is Rattus norvegicus. Briefly: Compound was tested for oral salidiuretic activity (control/drug treatment value) in rats expressed in Na+, mequiv/6 hr at a dose of 32 mg/kg; 0.216/0.207. It is filed as functional, Urine.
Assay [39] concerns Rattus norvegicus. Briefly: Compound was tested for oral salidiuretic activity (control/drug treatment value) in rats expressed in Na+, mequiv/6 hr at a dose of 64 mg/kg; 0.216/0.097. It is filed as functional, Urine.
Assay [40] deals with Rattus norvegicus. Put plainly: Compound was tested for oral salidiuretic activity (control/drug treatment value) in rats expressed in Na+, mequiv/6 hr at a dose of 16 mg/kg; 0.216/0.178. It is filed as functional, Urine.

Regarding `Cc1cc(NC(=O)c2cccs2)ccc1OCC(O)CNC(C)(C)C` (stereo unspecified), the values for the Activity in the assay with Rattus norvegicus [1] and with Rattus norvegicus [2] were 0.14 and 10.33 mL, respectively. The ID50 was 0.03 mg/kg in assay [3] and above 1 mg/kg in [4].
As for `CC(=O)c1cc(NC(=O)c2cccs2)ccc1OCC(O)CNC(C)C` (stereo unspecified), the Activity stood at 7.87 mL in the assay on Rattus norvegicus [5] and 0.177 with Rattus norvegicus [6]. Moreover, the ID50 in [3] was 0.45 mg/kg; in assay [4], above 1 mg/kg.
As to `CCCOC(=O)c1cc(NC(=O)c2cccs2)ccc1OCC(O)CNC(C)(C)C` (stereo unspecified), the Activity was 0.202 in the assay with Rattus norvegicus [7] and 7.17 mL in the assay with Rattus norvegicus [8]. Besides, the ID50 was 0.27 mg/kg in assay [3] and above 1 mg/kg in assay [4].
Consider `COC(=O)c1cc(NC(=O)c2cccs2)ccc1OCC(O)CNC(C)(C)C` (stereo unspecified), for which the Activity in the assay on Rattus norvegicus [9] amounted to 0.306; with Rattus norvegicus [10], 6.83 mL. The values for the ID50 in [3] and in [4] were 0.042 mg/kg and above 1 mg/kg, respectively.
Take `CC(C)NCC(O)COc1ccc(NC(=O)c2cccs2)cc1` (stereo unspecified): the treated urinary output in the assay on Rattus norvegicus [11] was determined as 12.8 mL. Further, the ID50 in assay [3] was 0.045 mg/kg; in assay [4], above 1 mg/kg. Moreover, the Activity in the assay on Rattus norvegicus [12] is 0.114.
As to `CC(C)NCC(O)COc1ccc(NC(=O)c2cccs2)cc1C(=O)OC(C)C` (stereo unspecified), the values for the Activity in the assay on Rattus norvegicus [13] and in the assay on Rattus norvegicus [14] were 0.112 and 7.25 mL, respectively. The figures for the ID50 in [3] and in assay [4] were 0.17 mg/kg and 0.25 mg/kg, respectively.
With `CC(C)(C)NCC(O)COc1ccc(NC(=O)c2cccs2)cc1C(=O)O` (stereo unspecified), in the assay with Rattus norvegicus [15], the Activity stood at 0.229. In the assay with Rattus norvegicus [16], this compound had a treated urinary output of 5.32 mL. For the same compound, the ID50 in [3] and in [4] was above 8 mg/kg each time.
As to `Cc1cc(NC(=O)c2cccs2)ccc1OCC(O)CNC(C)C` (stereo unspecified), the results for the ID50 in assay [3] and in assay [4] were 0.02 mg/kg and above 1 mg/kg, respectively. For the same compound, the figures for the Activity in the assay with Rattus norvegicus [17] and with Rattus norvegicus [18] were 10.33 mL and 0.14, respectively.
As to `CC(C)(C)NCC(O)COc1ccc(NC(=O)c2cccs2)cc1` (stereo unspecified), the Activity in the assay on Rattus norvegicus [19] was 7.67 mL; in the assay with Rattus norvegicus [21], 7.67 mL; in the assay on Rattus norvegicus [22], 0.181; in the assay on Rattus norvegicus [23], 0.181; in the assay on Rattus norvegicus [24], 7.67 mL; with Rattus norvegicus [25] it was 0.181. The Activity in the assay with Rattus norvegicus [26] is 0.181. This compound had a treated urinary output in the assay on Rattus norvegicus [20] of 10 mL. Moreover, the figures for the ID50 in [3] and in assay [4] were 0.075 mg/kg and above 1 mg/kg, respectively.
Turning to `NS(=O)(=O)c1cc2c(cc1Cl)NCNS2(=O)=O` [HYDROCHLOROTHIAZIDE], the Activity with Rattus norvegicus [27] was 7.17 mL; in the assay with Rattus norvegicus [28] it was 7.17 mL; in the assay on Rattus norvegicus [30], 0.261; in the assay with Rattus norvegicus [32] it was 0.261; in the assay with Rattus norvegicus [33], 0.261; in the assay on Rattus norvegicus [34], 0.261. The treated urinary output in the assay on Rattus norvegicus [29] amounted to 9.58 mL; in the assay on Rattus norvegicus [31], 11.2 mL.
For the compound `CC(C)NCC(O)COc1cccc2ccccc12` (stereo unspecified) [PROPRANOLOL], the Activity was found to be 9.05 mL with Rattus norvegicus [35]; 9.05 mL in the assay with Rattus norvegicus [36]; 0.216 with Rattus norvegicus [37]; 0.216 in the assay with Rattus norvegicus [38]; 0.216 with Rattus norvegicus [39]; 0.216 in the assay on Rattus norvegicus [40].
